Source: patent publication US8318762B2, “Pyrazolospiroketone acetyl-CoA carboxylase inhibitors” (Pfizer Inc., priority 2008, dated 2012)

Assays:
[1] = test system: malonyl-CoA levels in muscle tissue; assay: Acute in vivo assessment of ACC inhibition: malonyl-CoA levels in muscle tissue (quadriceps); parameters: species or system male Sprague-Dawley Rats; conditions: relative to chow-fed vehicle control group, % decrease +/- SEM
Experimental: (§1) The ACC inhibitory activity of the compound of the present invention can be confirmed in vivo by evaluation of their ability to reduce malonyl-CoA levels in liver and muscle tissue from treated animals.
(§2) Measurement of malonyl-CoA production inhibition in experimental animals. In this method, male Sprague-Dawley Rats, maintained on standard chow and water ad libitum (225-275 g), were randomized prior to the study. Animals were either fed, or fasted for 18 hours prior to the beginning of the experiment. Two hours into the light cycle the animals were orally dosed with a volume of 5 mL/kg, (0.5% methyl cellulose; vehicle) or with the appropriate compound (prepared in vehicle). Fed vehicle controls were included to determine baseline tissue malonyl-CoA levels while fasted animals were included to determine the effect fasting had on malonyl-CoA levels. One hour after compound administration the animals were asphyxiated with CO2 and the tissues were removed. Specifically, blood was collected by cardiac puncture and placed into BD Microtainer tubes containing EDTA (BD Biosciences, NJ), mixed, and placed on ice. Plasma was used to determine drug exposure. Liver and quadriceps were removed, immediately freeze-clamped, wrapped in foil and stored in liquid nitrogen.
(§3) Tissues were pulverized under liquid N2 to ensure uniformity in sampling. Malonyl-CoA was extracted from the tissue (150-200 mg) with 5 volumes 10% […] in Lysing Matrix A (MP Biomedicals, PN 6910) in a FastPrep FP120 (Thermo Scientific, speed=5.5; for 45 seconds). The supernatant containing malonyl-CoA was removed from the cell debris after centrifugation at 15000×g for 30 minutes (Eppendorf Centrifuge 5402). Samples were stably frozen at −80 C until analysis is completed.
(§4) Analysis of malonyl CoA levels in liver and muscle tissue can be evaluated using the following methodology.
(§5) The method utilizes the following materials: Malonyl-CoA tetralithium salt and malonyl-^13C3-CoA trilithium salt which were purchased from Isotec (Miamisburg, Ohio, USA), sodium perchlorate (Sigma, cat no. 410241), trichloroacetic acid (ACROS, cat no. 42145), phosphoric acid (J. T. Baker, cat no. 0260-01), ammonium formate (Fluke, cat no. 17843), methanol (HPLC grade, J. T. Baker, cat no. 9093-33), and water (HPLC grade, J. T. Baker, 4218-03) were used to make the necessary mobile phases. Strata-X on-line solid phase extraction columns, 25 μm, 20 mm×2.0 mm I.D (cat no. 00M-S033-B0-CB) were obtained from Phenomenex (Torrance, Calif., USA). SunFire C18 reversed-phase columns, 3.5 μm, 100 mm×3.0 mm I.D. (cat no. 186002543) were purchased from Waters Corporation (Milford, Mass., USA).
(§6) This method may be performed utilizing the following equipment. Two-dimensional chromatography using an Agilent 1100 binary pump, an Agilent 1100 quaternary pump and two Valco Cheminert 6-port two position valves. Samples were introduced via a LEAP HTC PAL auto sampler with Peltier cooled stack maintained at 10° C. and a 20 μL sampling loop. The needle wash solutions for the autosampler are 10% trichloroacetic acid in water (w/v) for Wash 1 and 90:10 methanol:water for Wash 2. The analytical column (Sunfire) was maintained at 35° C. using a MicroTech Scientific Micro-LC Column Oven. The eluant was analyzed on an ABI Sciex API3000 triple quadrupole mass spectrometer with Turbo Ion Spray.
(§7) Two-dimensional chromatography was performed in parallel using distinct gradient elution conditions for on-line solid phase extraction and reversed-phase chromatography. The general design of the method was such that the first dimension was utilized for sample clean-up and capture of the analyte of interest followed by a brief coupling of both dimensions for elution from the first dimension onto the second dimension. The dimensions were subsequently uncoupled allowing for gradient elution of the analyte from the second dimension for quantification while simultaneously preparing the first dimension for the next sample in the sequence. […]

[2] = test system: malonyl-CoA levels in liver; assay: Acute in vivo assessment of ACC inhibition: malonyl-CoA levels in liver tissue; parameters: species or system male Sprague-Dawley Rats; conditions: relative to chow-fed vehicle control group, % decrease +/- SEM
Experimental: as §1, §2, §3, §4, §5, §6, §7

recombinant human ACC2 = molecular target: T1, recombinant human ACC2 (Homo sapiens, UniProt O00763); assay: Measurement of human ACC2 inhibition (recombinant hACC2 Transcreener ADP detection FP assay); assay type: biochemical; conditions: recombinant hACC2 transcreener assay; read-out: rhACC2 IC50
T1 construct: a full length Cytomax clone of ACC2 was purchased from Cambridge Bioscience Limited; made in house; host or cells: CHO cells (tetracycline induction, pcDNA5 FRT TO-TOPO); purified on a Softlink Soft Release Avidin column
Method in brief: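 Purified hACC2 from tetracycline-induced CHO cells (avidin-column eluate) was run in 50 mM HEPES pH7.5, 5 mM MgCl2, 5 mM citrate, 2 mM DTT, 0.5 mg/mL BSA with 30 μM acetyl-CoA, 50 μM ATP and 8 mM KHCO3. Reaction lasted 1 hour at room temperature; ADP was detected by Transcreener FP after another 1 hour.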

rat liver ACC = rat liver ACC (Rattus norvegicus, UniProt P11497); assay type: biochemical; conditions: rat liver ACC radio enzymatic assay
Experimental: [1] Preparation of rat liver ACC. Rat liver ACC was obtained from rat liver based upon standard procedures such as those described by Thampy and Wakil (J. Biol. Chem. 260: 6318-6323; 1985) using the following method.
Male CD rats weighing 150-200 g were fasted for 18-24 hours and then fed a high sucrose diet (AIN-76A rodent diet; Cat # D10001, Research Diets Inc., New Brunswick, N.J.), for 3 days at which time they were sacrificed by CO2 asphyxiation. The livers were removed, rinsed in ice-cold phosphate-buffered saline (PBS), and homogenized in 5 volumes of homogenization buffer (50 mM potassium phosphate, pH 7.5, 10 mM EDTA, 10 mM 2-mercaptoethanol, 2 mM benzamidine, 0.2 mM phenylmethylsulfonylfluoride (PMSF), 5 mg/L each leupeptin, aprotinin, and antitrypsin) in a Waring® blender for 1 minute at 4° C. All subsequent operations were carried out at 4° C. The homogenate has made 3% with respect to polyethylene glycol (PEG) by the addition of 50% PEG solution and centrifuged at 20,000×g for 15 minutes. The resulting supernatant was adjusted to 5% PEG with the addition of 50% PEG solution and stirred for 5 minutes. The pellet (contains ACC activity) was collected by centrifugation at 20,000×g for 20 minutes, rinsed with ice-cold doubly distilled water to remove excess PEG and re-suspended in one-fourth the original homogenate volume with homogenization buffer. Ammonium sulfate (200 g/liter) was slowly added with stirring. After 45 minutes the enzyme is collected by centrifugation for 30 minutes at 20,000×g, re-suspended in 10 mL of 50 mM HEPES, pH7.5, 0.1 mM DTT, 1.0 mM EDTA, and 10% glycerol and desalted on a Sephadex™ G-25 column (2.5 cm×50 cm) (Pharmacia, Piscataway N.J. now GE Healthcare) equilibrated with the same buffer. The desalted enzyme preparation was stored in aliquots at −70° C. Immediately prior to use, frozen rat liver ACC aliquots were thawed, diluted to 500 μg/mL in buffer containing 50 mM HEPES, pH7.5, 10 mM MgCl2, 10 mM tripotassium citrate, 2.0 mM dithiothreitol (DTT), and 0.75 mg/mL fatty acid-free bovine serum albumin (BSA) and pre-incubated at 37° C. for 30 minutes.
[2] Measurement of rat liver ACC inhibition. For measurement of ACC activity and assessment of ACC inhibition, test compounds were dissolved in dimethylsulfoxide (DMSO) and 1 μL aliquots were added to a clear bottom, 96-well plates (Perkin-Elmer PN#1450-514). Control wells contain 1 μL of DMSO alone or 1 μL of high inhibition compound. The enzyme obtained from rat liver as described above was activated in Enzyme buffer at 37° C. for 30 minutes prior to addition to compound plate. All wells receive 75 μL of activated enzyme (1.33×) in a buffer containing 50 mM HEPES, pH7.5, 7.5 mM MgCl2 7.5 mM tripotassium citrate, 2 mM DTT, 50 mg/mL BSA. The activated enzyme was pre-incubated with the cmpd for 10 minute prior to initiating the reaction through the addition of 25 μL of substrate solution containing 50 mM HEPES, pH7.5, 7.5 mM MgCl2 7.5 mM tripotassium citrate, 2 mM DTT, 50 mg/mL BSA, 120 μM acetyl-CoA, 8.0 mM ATP, 38.4 mM KHCO3, and 1.6 mM NaH[^14C]O3 ([…]). The final substrate concentrations in the reaction were 30 μM Acetyl-CoA, 9.6 mM KHCO3, 0.4 mM NaH[^14C]O3, and 2 mM ATP. The reaction was terminated after 10 mins by the addition of 25 μL 3N HCl and the plates were dried at 50° C. for a minimum 20 hrs. 30 μL of water was added to the dried plate and mixed for 5 minutes. 95 μL of Optiphase Supermix liquid scintillation fluid (Perkin Elmer, Waltham, Mass.) was added and the plates are mixed for 20 minutes. Incorporation of ^14C into MCoA was measured using a Wallac Trilux 1450 Microbeta LSC luminescence counter.

T1 sequence (O00763 whole entry): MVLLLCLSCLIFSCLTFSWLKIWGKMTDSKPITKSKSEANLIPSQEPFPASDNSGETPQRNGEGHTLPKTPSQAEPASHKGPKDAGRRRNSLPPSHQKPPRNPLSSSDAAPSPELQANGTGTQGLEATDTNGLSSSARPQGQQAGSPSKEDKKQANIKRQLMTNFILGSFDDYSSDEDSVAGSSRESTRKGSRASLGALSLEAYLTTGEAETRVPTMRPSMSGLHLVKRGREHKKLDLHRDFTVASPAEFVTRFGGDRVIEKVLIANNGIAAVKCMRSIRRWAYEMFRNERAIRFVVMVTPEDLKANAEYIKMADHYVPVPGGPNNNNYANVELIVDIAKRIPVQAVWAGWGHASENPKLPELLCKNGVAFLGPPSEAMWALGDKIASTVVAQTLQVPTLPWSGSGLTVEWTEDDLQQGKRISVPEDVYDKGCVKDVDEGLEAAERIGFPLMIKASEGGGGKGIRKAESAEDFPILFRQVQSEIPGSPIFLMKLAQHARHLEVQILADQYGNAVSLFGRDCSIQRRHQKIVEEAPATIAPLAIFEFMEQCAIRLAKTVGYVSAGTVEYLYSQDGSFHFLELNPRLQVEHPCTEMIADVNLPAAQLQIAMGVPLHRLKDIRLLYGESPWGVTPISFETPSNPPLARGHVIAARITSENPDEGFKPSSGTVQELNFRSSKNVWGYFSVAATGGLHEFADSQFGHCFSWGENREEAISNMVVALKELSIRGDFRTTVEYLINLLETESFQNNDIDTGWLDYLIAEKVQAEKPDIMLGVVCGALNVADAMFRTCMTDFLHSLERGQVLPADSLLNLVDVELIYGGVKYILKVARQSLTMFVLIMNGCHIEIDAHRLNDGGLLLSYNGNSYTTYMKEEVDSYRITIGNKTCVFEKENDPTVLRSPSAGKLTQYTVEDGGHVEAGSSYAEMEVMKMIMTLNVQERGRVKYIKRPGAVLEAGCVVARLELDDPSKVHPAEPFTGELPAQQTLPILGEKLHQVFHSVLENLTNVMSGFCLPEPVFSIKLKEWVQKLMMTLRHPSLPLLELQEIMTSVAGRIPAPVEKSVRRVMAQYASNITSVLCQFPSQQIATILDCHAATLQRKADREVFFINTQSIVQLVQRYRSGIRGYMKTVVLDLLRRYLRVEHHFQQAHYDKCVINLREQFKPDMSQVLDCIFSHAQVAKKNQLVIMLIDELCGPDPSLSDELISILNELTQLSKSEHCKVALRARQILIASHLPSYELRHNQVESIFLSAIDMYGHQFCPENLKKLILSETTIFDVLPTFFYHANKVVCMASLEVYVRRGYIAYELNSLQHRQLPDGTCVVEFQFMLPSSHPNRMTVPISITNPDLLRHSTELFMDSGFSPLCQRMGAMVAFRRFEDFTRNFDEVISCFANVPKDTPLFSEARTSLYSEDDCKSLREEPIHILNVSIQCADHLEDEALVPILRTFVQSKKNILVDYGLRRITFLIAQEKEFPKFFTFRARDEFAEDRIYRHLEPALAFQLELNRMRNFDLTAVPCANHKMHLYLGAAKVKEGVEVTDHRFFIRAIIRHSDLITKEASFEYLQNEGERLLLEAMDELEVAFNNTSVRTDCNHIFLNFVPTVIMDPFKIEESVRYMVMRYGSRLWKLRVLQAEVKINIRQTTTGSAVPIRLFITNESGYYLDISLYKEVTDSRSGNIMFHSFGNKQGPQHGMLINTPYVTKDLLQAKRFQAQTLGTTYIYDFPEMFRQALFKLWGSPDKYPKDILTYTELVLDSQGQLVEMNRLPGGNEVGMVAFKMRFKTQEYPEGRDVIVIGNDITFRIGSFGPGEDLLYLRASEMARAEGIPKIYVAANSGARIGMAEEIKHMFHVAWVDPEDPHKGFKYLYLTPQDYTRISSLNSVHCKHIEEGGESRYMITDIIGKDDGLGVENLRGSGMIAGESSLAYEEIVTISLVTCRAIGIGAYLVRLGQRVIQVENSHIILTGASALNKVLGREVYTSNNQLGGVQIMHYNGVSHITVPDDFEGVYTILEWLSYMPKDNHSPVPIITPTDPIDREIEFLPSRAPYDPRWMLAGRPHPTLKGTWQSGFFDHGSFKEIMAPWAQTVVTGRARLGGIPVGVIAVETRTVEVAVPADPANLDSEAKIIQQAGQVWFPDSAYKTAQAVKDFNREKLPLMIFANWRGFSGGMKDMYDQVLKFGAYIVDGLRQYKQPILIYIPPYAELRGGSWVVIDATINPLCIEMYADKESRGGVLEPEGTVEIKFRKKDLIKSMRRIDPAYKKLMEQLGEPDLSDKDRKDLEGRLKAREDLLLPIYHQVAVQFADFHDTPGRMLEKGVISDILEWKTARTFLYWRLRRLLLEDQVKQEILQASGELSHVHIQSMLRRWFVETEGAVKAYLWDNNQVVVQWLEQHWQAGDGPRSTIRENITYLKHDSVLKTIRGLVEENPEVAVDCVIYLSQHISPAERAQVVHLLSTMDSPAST

Compound	Percent decrease in Muscle Malonyl-CoA (quadriceps) ([1]; dose 1 mg/kg)	Percent decrease in Muscle Malonyl-CoA (quadriceps) ([1]; dose 3 mg/kg)	Percent decrease in Muscle Malonyl-CoA (quadriceps) ([1]; dose 10 mg/kg)	Percent decrease in Muscle Malonyl-CoA (quadriceps) ([1]; dose 30 mg/kg)	Percent decrease in Liver Malonyl-CoA ([2]; dose 1 mg/kg)	Percent decrease in Liver Malonyl-CoA ([2]; dose 3 mg/kg)	Percent decrease in Liver Malonyl-CoA ([2]; dose 10 mg/kg)	Percent decrease in Liver Malonyl-CoA ([2]; dose 30 mg/kg)	IC50 (recombinant human ACC2) [nM]	IC50 (rat liver ACC) [nM]
CCn1nc2c(c1C)OC1(CCN(C(=O)c3cc(C)c4[nH]nc(C)c4c3)CC1)CC2=O [1.001]	5.69 (8.73) %	2.90 (4.29) %	22.83 (5.72) %	48.03 (2.63) %	28.29 (8.40) %	30.37 (11.50) %	45.45 (3.51) %	54.31 (7.63) %	11	–
CCC(C)n1nc2c(c1C)OC1(CCN(C(=O)c3ccc4[nH]nc(C)c4c3)CC1)CC2=O (stereo not drawn) [1.137]	–	–	–	–	–	–	–	–	9	17
CC(C)(C)n1cc2c(n1)C(=O)CC1(CCN(C(=O)c3ccc4ncsc4c3)CC1)O2 [10.002]	–	–	–	–	–	–	–	–	25	46
CCC(C)n1cc2c(n1)C(=O)CC1(CCN(C(=O)c3ccc4[nH]nc(C)c4c3)CC1)O2 (stereo not drawn) [1.141]	–	–	–	–	–	–	–	–	19	32
Cc1n[nH]c2c(C)cc(C(=O)N3CCC4(CC3)CC(=O)c3nn(C(C)(C)C)cc3O4)cc12 [1.012]	31.53 (3.58) %	43.01 (4.24) %	59.48 (5.28) %	71.08 (2.18) %	40.32 (6.24) %	54.87 (3.22) %	75.72 (2.47) %	86.52 (1.49) %	2	–
CCn1nc2c(c1C)OC1(CCN(C(=O)c3cc(C)c4[nH]cc(C)c4c3)CC1)CC2=O [4.001]	–	–	–	–	–	–	–	–	29	9
CCn1nc2c(c1C)OC1(CCN(C(=O)c3cc(C)c4[nH]ncc4c3)CC1)CC2=O [1.023]	–	–	–	–	–	–	–	–	31	28
Cc1cc(C(=O)N2CCC3(CC2)CC(=O)c2nn(C4CCC4)cc2O3)cc2cn[nH]c12 [1.039]	–	–	–	–	–	–	–	–	13	15
